Test [1] concerns the target Leucine-rich repeat serine/threonine-protein kinase 2 (Homo sapiens, UniProt Q5S007). As to conditions: Compound concentration 1000.0 nM.
The target of test [2] is Neuropeptide Y receptor type 2 (Homo sapiens) (UniProt P49146). Description: Inhibition of Neuropeptide Y Y2 at 10 µM in the Eurofins-Panlabs radioligand binding assay (Eurofins_assay_257110). Conditions: Compound concentration 10.0 uM.
In test [3] the target is T1, Activin receptor type-1 (Homo sapiens) (UniProt Q04771).
T1 sequence (whole entry): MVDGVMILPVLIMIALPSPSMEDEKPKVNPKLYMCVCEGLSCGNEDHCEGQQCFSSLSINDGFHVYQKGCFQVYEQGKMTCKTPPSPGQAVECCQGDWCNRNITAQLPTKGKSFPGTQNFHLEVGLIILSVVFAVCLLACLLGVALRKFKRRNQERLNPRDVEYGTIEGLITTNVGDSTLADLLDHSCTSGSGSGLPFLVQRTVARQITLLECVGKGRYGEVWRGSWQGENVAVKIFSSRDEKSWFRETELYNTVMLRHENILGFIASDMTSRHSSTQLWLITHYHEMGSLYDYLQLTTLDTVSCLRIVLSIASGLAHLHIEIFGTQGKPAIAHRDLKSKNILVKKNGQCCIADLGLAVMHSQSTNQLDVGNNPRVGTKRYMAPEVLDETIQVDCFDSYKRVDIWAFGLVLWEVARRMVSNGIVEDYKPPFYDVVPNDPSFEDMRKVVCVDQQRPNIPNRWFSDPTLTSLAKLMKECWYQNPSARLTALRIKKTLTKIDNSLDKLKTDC
Description: ACVR1 (ALK2) Kinase screen. As to conditions: Compound concentration 1.0 uM.

For test [4], the target named is Macrophage colony-stimulating factor 1 receptor (Homo sapiens) (UniProt P07333). Briefly: CSF1R (FMS) Kinase screen. Conditions: Compound concentration 1.0 uM.
Test [5] concerns the target Receptor tyrosine-protein kinase erbB-4 (Homo sapiens) (UniProt Q15303). Briefly: ERBB4 (HER4) Kinase screen. As to conditions: Compound concentration 1.0 uM.
Test [6] concerns the target Serine/threonine-protein kinase mTOR (Homo sapiens) (UniProt P42345). Description: FRAP1 (mTOR) Kinase screen. As to conditions: Compound concentration 1.0 uM.
Test [7] deals with G protein-coupled receptor kinase 5 (Homo sapiens) (UniProt P34947). Briefly: GRK5 Kinase screen. As to conditions: Compound concentration 1.0 uM.
Test [8] addresses Glycogen synthase kinase-3 alpha (Homo sapiens) (UniProt P49840). Description: GSK3A (GSK3 alpha) Kinase screen. Conditions: Compound concentration 1.0 uM.
Test [9] concerns the target Homeodomain-interacting protein kinase 2 (Homo sapiens) (UniProt Q9H2X6). Description: HIPK2 Kinase screen. As to conditions: Compound concentration 1.0 uM.
The target in test [10] is Tyrosine-protein kinase Lyn (Homo sapiens) (UniProt P07948). Description: LYN A Kinase screen. Conditions: Compound concentration 1.0 uM.
In test [11] the target is Mitogen-activated protein kinase kinase kinase 10 (Homo sapiens) (UniProt Q02779). Description: MAP3K10 (MLK2) Kinase screen. As to conditions: Compound concentration 1.0 uM.
In test [12] the target is Mitogen-activated protein kinase kinase kinase 11 (Homo sapiens) (UniProt Q16584). Description: MAP3K11 (MLK3) Kinase screen. As to conditions: Compound concentration 1.0 uM.
For test [13], the target named is Mitogen-activated protein kinase kinase kinase 9 (Homo sapiens) (UniProt P80192). Description: MAP3K9 (MLK1) Kinase screen. As to conditions: Compound concentration 1.0 uM.
Test [14] has as its target MAP/microtubule affinity-regulating kinase 3 (Homo sapiens) (UniProt P27448). Description: MARK3 Kinase screen. As to conditions: Compound concentration 1.0 uM.
For test [15], the system named is Hepatocyte growth factor receptor (Homo sapiens), P08581 [M1250T]. Description: MET M1250T Kinase screen. Conditions: Compound concentration 1.0 uM.
Test [16] deals with T2, Muscle, skeletal receptor tyrosine-protein kinase (Homo sapiens) (UniProt O15146).
T2 sequence (whole entry): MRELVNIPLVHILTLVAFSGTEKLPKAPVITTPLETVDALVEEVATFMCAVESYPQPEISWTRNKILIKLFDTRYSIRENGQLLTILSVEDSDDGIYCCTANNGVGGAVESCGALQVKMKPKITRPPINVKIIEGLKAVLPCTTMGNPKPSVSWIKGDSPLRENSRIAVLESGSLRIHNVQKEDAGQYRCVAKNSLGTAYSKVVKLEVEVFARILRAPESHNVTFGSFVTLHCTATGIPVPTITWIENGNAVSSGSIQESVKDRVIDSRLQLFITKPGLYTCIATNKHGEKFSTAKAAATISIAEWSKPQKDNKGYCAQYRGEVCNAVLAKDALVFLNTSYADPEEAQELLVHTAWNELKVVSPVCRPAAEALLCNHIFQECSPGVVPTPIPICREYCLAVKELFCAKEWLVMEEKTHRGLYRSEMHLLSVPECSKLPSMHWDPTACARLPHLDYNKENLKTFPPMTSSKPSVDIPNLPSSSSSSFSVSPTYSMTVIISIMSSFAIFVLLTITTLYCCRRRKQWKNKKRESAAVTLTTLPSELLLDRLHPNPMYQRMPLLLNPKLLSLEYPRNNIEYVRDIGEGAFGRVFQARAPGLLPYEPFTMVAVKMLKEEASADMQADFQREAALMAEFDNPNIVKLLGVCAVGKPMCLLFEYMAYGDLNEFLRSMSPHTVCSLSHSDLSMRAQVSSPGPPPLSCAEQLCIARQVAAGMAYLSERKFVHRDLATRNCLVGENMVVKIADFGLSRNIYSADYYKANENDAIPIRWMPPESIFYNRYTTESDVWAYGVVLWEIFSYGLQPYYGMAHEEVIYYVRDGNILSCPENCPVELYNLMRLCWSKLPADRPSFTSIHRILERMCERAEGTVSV
Description: MUSK Kinase screen. As to conditions: Compound concentration 1.0 uM.

For test [17], the target named is T3, Serine/threonine-protein kinase Nek2 (Homo sapiens) (UniProt P51955).
T3 sequence (whole entry): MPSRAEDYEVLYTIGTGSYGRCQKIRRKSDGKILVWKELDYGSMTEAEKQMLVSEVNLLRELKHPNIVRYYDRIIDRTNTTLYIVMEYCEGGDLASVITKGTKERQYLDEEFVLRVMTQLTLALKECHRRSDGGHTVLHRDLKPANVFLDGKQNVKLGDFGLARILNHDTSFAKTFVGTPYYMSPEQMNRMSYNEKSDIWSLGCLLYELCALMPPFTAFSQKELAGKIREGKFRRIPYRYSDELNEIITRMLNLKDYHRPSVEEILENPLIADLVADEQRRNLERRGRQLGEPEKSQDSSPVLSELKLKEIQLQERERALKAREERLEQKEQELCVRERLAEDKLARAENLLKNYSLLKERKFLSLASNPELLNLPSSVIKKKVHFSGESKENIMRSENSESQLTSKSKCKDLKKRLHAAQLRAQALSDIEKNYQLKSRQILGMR
Briefly: NEK2 Kinase screen. Conditions: Compound concentration 1.0 uM.

In test [18] the target is Peroxisome proliferator-activated receptor alpha (Homo sapiens) (UniProt Q07869). Briefly: PPARalpha Eurofins-Panlabs radioligand binding assay. As to conditions: Compound concentration 10.0 uM.
In test [19] the target is Progesterone receptor (Homo sapiens) (UniProt P06401). Briefly: Inhibition of Progesterone PR-B at 10 µM in the Eurofins-Panlabs radioligand binding assay (Eurofins_assay_268020). Also noted: ligand concentration 1.4 nM. Conditions: Compound concentration 10.0 uM.
In test [20] the target is Prostaglandin E2 receptor EP1 subtype (Homo sapiens) (UniProt P34995). Briefly: Prostanoid EP1 Eurofins-Panlabs radioligand binding assay. Also noted: ligand concentration 1 nM. As to conditions: Compound concentration 10.0 uM.
Test [21] has as its target Glutamate NMDA receptor (Rattus norvegicus) (UniProt P35439+Q00959+Q00960+Q00961+Q62645+Q8VHN2+Q9R1M7). Conditions: Compound concentration 10.0 uM.

Chain of Mitogen-activated protein kinase kinase kinase 10 (Homo sapiens) (Q02779 whole entry, looked up): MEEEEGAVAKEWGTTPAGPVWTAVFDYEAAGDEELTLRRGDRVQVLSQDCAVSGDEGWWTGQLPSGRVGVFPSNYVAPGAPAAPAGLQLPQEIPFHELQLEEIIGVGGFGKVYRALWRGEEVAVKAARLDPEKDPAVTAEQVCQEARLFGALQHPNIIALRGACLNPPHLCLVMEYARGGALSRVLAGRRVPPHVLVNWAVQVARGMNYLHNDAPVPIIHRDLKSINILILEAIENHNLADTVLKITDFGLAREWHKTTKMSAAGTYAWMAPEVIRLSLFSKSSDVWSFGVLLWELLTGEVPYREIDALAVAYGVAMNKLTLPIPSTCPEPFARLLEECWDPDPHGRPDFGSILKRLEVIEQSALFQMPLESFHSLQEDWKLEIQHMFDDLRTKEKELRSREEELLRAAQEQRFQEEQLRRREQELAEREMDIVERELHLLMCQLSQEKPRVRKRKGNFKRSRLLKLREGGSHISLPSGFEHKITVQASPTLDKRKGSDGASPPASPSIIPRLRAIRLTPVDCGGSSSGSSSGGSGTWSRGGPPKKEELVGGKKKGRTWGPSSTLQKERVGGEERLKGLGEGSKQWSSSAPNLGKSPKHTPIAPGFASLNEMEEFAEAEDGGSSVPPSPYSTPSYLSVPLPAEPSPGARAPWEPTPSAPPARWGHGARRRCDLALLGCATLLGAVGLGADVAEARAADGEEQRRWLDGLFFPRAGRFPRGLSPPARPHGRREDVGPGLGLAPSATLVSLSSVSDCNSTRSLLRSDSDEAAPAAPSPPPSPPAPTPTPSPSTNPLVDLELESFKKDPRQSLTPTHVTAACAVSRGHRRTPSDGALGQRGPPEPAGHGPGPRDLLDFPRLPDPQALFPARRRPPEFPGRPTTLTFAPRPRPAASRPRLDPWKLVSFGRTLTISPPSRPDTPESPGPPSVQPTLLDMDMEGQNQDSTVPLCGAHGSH
Chain of Mitogen-activated protein kinase kinase kinase 11 (Homo sapiens) (Q16584 whole entry, looked up): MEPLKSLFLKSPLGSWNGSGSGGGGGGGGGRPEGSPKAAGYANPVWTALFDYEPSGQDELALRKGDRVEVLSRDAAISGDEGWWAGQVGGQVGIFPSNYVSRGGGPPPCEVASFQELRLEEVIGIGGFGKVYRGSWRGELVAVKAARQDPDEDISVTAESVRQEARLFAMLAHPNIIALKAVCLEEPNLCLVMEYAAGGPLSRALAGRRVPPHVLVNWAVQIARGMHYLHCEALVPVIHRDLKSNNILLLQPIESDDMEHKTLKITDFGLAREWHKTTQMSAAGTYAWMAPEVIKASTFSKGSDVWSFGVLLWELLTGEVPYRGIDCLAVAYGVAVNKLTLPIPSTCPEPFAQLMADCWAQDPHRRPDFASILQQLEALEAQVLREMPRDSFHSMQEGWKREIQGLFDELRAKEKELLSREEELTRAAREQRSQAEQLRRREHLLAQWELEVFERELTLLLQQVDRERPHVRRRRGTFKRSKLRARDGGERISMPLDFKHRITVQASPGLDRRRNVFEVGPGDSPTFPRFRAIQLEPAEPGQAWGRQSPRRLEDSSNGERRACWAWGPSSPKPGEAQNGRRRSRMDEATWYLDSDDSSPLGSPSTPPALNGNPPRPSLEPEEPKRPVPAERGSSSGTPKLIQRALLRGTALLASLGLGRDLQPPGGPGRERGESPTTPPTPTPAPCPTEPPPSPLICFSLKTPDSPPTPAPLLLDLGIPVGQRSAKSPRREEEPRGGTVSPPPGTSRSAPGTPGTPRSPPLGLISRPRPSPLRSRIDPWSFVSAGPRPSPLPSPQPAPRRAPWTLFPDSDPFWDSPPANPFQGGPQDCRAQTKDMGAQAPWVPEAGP
Chain of Mitogen-activated protein kinase kinase kinase 9 (Homo sapiens) (P80192 whole entry, looked up): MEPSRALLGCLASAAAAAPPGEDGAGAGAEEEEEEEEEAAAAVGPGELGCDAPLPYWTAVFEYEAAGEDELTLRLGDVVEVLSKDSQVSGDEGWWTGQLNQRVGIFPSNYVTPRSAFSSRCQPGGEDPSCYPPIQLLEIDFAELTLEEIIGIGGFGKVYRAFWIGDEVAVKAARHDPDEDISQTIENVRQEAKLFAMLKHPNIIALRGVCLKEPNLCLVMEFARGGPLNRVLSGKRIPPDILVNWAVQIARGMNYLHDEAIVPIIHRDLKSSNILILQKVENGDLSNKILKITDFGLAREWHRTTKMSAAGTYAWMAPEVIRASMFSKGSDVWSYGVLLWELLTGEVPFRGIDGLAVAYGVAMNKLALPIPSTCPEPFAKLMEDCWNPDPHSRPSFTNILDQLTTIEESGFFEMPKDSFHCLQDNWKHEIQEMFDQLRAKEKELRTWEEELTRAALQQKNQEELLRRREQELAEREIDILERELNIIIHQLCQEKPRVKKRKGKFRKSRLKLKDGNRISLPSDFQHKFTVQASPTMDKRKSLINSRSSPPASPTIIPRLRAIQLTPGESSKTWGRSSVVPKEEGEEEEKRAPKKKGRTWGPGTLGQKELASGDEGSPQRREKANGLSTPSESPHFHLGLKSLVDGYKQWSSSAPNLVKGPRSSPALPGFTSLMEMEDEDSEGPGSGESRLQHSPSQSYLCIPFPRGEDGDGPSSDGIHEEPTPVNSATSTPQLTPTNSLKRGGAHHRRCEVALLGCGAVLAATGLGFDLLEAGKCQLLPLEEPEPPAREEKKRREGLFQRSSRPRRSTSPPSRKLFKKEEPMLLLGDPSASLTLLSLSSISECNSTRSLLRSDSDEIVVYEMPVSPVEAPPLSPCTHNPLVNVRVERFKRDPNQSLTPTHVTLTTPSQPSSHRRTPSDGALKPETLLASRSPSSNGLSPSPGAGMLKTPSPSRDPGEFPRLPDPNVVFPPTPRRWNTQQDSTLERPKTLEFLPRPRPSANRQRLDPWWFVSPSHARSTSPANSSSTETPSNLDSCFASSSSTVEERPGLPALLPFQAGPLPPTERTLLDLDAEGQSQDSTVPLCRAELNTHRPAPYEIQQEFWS
Chain of Hepatocyte growth factor receptor (Homo sapiens), P08581 [M1250T] (P08581 whole entry M1250T): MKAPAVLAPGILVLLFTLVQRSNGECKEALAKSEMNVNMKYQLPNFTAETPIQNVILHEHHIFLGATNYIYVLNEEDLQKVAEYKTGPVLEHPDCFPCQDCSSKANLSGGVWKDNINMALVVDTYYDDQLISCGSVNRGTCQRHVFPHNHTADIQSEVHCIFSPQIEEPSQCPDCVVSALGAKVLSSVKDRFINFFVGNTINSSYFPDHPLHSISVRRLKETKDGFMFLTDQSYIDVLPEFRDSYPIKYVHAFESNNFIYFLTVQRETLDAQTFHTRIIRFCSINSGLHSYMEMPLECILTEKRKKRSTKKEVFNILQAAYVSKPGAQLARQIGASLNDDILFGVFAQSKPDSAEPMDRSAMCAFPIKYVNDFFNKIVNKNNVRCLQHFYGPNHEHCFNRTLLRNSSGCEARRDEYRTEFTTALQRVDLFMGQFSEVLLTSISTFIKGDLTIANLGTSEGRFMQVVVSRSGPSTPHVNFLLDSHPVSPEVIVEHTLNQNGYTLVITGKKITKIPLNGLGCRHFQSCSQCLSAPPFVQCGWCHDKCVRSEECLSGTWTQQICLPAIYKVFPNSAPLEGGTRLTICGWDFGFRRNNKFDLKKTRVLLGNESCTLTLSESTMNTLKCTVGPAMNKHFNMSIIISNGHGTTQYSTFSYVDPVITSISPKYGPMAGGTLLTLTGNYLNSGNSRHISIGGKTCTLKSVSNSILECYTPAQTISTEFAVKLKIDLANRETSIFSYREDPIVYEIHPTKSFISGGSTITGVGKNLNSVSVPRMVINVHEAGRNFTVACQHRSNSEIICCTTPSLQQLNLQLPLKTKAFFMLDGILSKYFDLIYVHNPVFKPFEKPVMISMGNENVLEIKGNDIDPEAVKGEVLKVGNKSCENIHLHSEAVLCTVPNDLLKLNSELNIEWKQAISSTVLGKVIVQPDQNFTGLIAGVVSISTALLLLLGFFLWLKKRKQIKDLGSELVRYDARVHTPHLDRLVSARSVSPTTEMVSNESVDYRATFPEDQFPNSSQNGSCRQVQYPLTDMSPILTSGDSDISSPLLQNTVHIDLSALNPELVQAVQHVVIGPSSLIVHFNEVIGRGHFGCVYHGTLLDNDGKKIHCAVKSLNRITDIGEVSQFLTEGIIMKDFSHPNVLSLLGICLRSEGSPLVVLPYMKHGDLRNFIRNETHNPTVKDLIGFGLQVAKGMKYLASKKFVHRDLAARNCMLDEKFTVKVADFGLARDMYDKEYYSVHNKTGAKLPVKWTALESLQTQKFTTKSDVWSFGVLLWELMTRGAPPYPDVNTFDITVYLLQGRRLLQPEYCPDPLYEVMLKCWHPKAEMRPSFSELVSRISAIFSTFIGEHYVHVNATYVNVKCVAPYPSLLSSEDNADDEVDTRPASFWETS
Chain of Tyrosine-protein kinase Lyn (Homo sapiens) (P07948 2-512 limits assumed): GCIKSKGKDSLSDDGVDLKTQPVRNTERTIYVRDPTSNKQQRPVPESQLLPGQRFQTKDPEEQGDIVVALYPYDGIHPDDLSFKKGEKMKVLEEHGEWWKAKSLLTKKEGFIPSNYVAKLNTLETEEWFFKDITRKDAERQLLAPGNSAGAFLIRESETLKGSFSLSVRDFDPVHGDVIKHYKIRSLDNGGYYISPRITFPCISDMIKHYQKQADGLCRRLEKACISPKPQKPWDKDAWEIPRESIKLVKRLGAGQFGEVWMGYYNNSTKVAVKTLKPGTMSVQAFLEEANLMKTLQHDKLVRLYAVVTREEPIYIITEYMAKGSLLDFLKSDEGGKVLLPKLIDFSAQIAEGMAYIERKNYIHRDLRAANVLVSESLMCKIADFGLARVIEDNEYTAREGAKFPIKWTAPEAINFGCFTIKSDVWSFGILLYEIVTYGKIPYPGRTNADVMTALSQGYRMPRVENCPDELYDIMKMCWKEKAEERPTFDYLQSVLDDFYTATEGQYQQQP

With `C[C@@H]1CN(c2cc(-c3nn(C)c4ccc(OC5(C)CC5)cc34)ncn2)C[C@H](C)O1` [MLi-2-NC], in [1], the residual activity was 22%.

As for `C[C@@H]1CN(c2cc(-c3n[nH]c4ccc(OC5(C)CC5)cc34)ncn2)C[C@H](C)O1` [MLi-2], the inhibition in test [2] was 1%; in test [3], 10.7%; in test [4], 6.91%; in [5], 11.9%; in [6], 7.14%; in [7] it was 0.0771%. Moreover, the inhibition is 0.0184% in test [8]; 5.33% in [9]; 1.05% in test [10]; 0.659% in test [11]; -3.69% in test [12]; 27.3% in test [13]. Moreover, the inhibition is 1.57% in [14]; 2.2% in [15]; -0.0337% in test [16]; -2.6% in test [17]; 10% in test [18]; 30% in [19]. Also, the values for the inhibition in test [20] and in [21] were 16% and 5%, respectively.

By residual activity is commonly meant the activity still measured, relative to the control. For orientation: inhibition means the relative decrease from the control value, in per cent.

For the origin of these results see ChEMBL document CHEMBL4507291 (2021).
